Laboratory results reported in patent US20240140895A1, “NOVEL AROMATIC MOLECULES” (XENIOPRO GmbH, priority 2018, published 2024).

Experiments:
Format in all cases: cell-based
[1] = test system: NB-4 cells (human acute promyelocytic leukemia cells); test: Proliferation assay (alamarBlue) with NB-4 cells
Source text: (§1) The antiproliferative activities of compounds falling under formula (Ia), (Tb) and (Ic), respectively, were investigated on cells or cell lines originating from a disorder of the haematopoietic system, including the myeloid cell compartment and the lymphoid cell compartment (T-cells and B-cells), the neuroendocrine system, the cervix, the breast, the ovaries, the lung, the gastrointestinal tract, and the mucosal epithelium, as well as from the skin epithelium and from the muscle. To this end, HL-60 cells, NB-4 cells, HH cells, RPMI-8402 cells, TANOUE cells, TT cells, HeLa cells, MDA-MB-231 cells, FU-OV-1 cells, LOU-NH91 cells, 23132/87 cells, CAL-27 cells, BHY cells, SCC-25 cells, A-431 cells, human primary epidermal keratinocytes (HPEK), and C2C12 cells were seeded into 96-well plates suitable for fluorescence assays (CORNING #3598) at following initial cell numbers: 1000 cells per well for HL-60; 1000 cells per well for NB-4; 5000 cells per well for HH; 5000 cells per well for RPMI-8402; 1500 cells per well for TANOUE; 9000 cells per well for TT; 2000 cells per well for HeLa; 3000 cells per well for MDA-MB-231; 3000 cells per well for FU-OV-1; 4000 cells per well for LOU-NH91; 2000 cells per well for 23132/87; 2000 cells per well for CAL-27; 1500 cells per well for BHY; 1500 cells per well for SCC-25; 700 cells per well for A-431; 1000 cells per well for HPEK; 500 cells per well for C2-C12. The cells were treated with compounds at indicated final concentrations (diluted from the 1000× stock-solutions in DMSO to a final DMSO concentration of 0.1% v/v in H2O (Water For Injection, WFI, Fisherscientific #10378939)) or with the empty carrier DMSO at 0.1% v/v as control for 5 days. At day 5 after starting the treatments the cells were subjected to the alamarBlue® Proliferation Assay (Bio-Rad Serotec GmbH, BUF012B) according to the protocol of the manufacturer. The readout was taken with a multi-well plate-reader in the fluorescence mode with applying a filter for excitation at 560 nm (band width 10 nm) and for emission at 590 nm (band width 10 nm). Control treatments for growth inhibition with commercial compounds such as Methotrexate (MTREX) and Resveratrol (RES) were included on every plate. Some of the test compounds of the present invention were obtained and applied as their salts. According cases are indicated in the column “Specification” in Table 30 to Table 62 and by their sum formula in Table 63.
(§2) The assays were performed in duplicate or more replicates of independent single experiments each containing a six-fold replicate for every condition. For every individual plate, the measured fluorescence intensity values of the conditions with compound treatment were normalized against the corresponding equally weighted arithmetic mean of the fluorescence intensity values of the six DMSO treated control wells in order to obtain the relative values to a baseline level of 1.0.
(§3) Two independent outlier analyses were performed according to the methods by Peirce and Chauvenet (Ross, Journal of Engineering Technology 2003, 1-12). Outliers confirmed by at least one of the methods were excluded from the calculations but not more than one value out of six per compound within a single experiment. The weighted arithmetic mean (here abbreviated as AVEw) for each compound was calculated from the normalized values over all independent replicates of the single experiments comprising the six replicates each. The corresponding standard deviation for the weighted arithmetic mean was calculated according to the method described by Bronstein et al. (Bronstein, Semendjajew, Musiol, Muhlig, Taschenbuch der Mathematik, 5th edition 2001 (German), publisher: Verlag Harri Deutsch, Frankfurt am Main and Thun) and was combined with the Gauβ′ error propagation associated with the performed calculation for the normalization. The resulting standard deviation is herein referred to as “combined standard deviation”. […]

[2] = test system: HH cells (human cutaneous T-cell lymphoma cells); test: Proliferation assay (alamarBlue) with HH cells; details: Table 34, compound at 20 μM, read-out: Activity Range (AVEw, weighted arithmetic mean of normalized fluorescence intensity, DMSO = 1.0)
Source text: as §1, §2, §3

[3] = test system: RPMI-8402 cells (human T cell acute lymphoblastic leukemia cells); test: Proliferation assay (alamarBlue) with RPMI-8402 cells
Source text: as §1, §2, §3

[4] = test system: TANOUE cells (human B cell leukemia cells); test: Proliferation assay (alamarBlue) with TANOUE cells
Source text: as §1, §2, §3

[5] = test system: MDA-MB-231 cells (human breast carcinoma cells); test: Proliferation assay (alamarBlue) with MDA-MB-231 cells
Source text: as §1, §2, §3

[6] = test system: FU-OV-1 cells (human ovarian carcinoma cells); test: Proliferation assay (alamarBlue) with FU-OV-1 cells
Source text: (§4) The antiproliferative activities of compounds falling under formula (Ia), (Tb) and (Ic), respectively, were investigated on cells or cell lines originating from a disorder of the haematopoietic system, including the myeloid cell compartment and the lymphoid cell compartment (T-cells and B-cells), the neuroendocrine system, the cervix, the breast, the ovaries, the lung, the gastrointestinal tract, and the mucosal epithelium, as well as from the skin epithelium and from the muscle. To this end, HL-60 cells, NB-4 cells, HH cells, RPMI-8402 cells, TANOUE cells, TT cells, HeLa cells, MDA-MB-231 cells, FU-OV-1 cells, LOU-NH91 cells, 23132/87 cells, CAL-27 cells, BHY cells, SCC-25 cells, A-431 cells, human primary epidermal keratinocytes (HPEK), and C2C12 cells were seeded into 96-well plates suitable for fluorescence assays (CORNING #3598) at following initial cell numbers: 1000 cells per well for HL-60; 1000 cells per well for NB-4; 5000 cells per well for HH; 5000 cells per well for RPMI-8402; 1500 cells per well for TANOUE; 9000 cells per well for TT; 2000 cells per well for HeLa; 3000 cells per well for MDA-MB-231; 3000 cells per well for FU-OV-1; 4000 cells per well for LOU-NH91; 2000 cells per well for 23132/87; 2000 cells per well for CAL-27; 1500 cells per well for BHY; 1500 cells per well for SCC-25; 700 cells per well for A-431; 1000 cells per well for HPEK; 500 cells per well for C2-C12. […] The readout was taken with a multi-well plate-reader in the fluorescence mode with applying a filter for excitation at 560 nm (band width 10 nm) and for emission at 590 nm (band width 10 nm). […]
as §2, with “1.0. […]” for “1.0.”

[7] = test system: LOU-NH91 cells (human lung squamous cell carcinoma cells); test: Proliferation assay (alamarBlue) with LOU-NH91 cells
Source text: as §4
as §2, with “1.0. […]” for “1.0.”

[8] = test system: 23132/87 cells (human gastric adenocarcinoma cells); test: Proliferation assay (alamarBlue) with 23132/87 cells; details: read-out: Activity Range: weighted arithmetic mean (AVEw) of normalized fluorescence intensity relative to DMSO basis level 1.0
Source text: as §1, §2, §3

[9] = test system: CAL-27 cells (human tongue squamous cell carcinoma cells); test: Proliferation assay (alamarBlue) with CAL-27 cells; details: read-out: Activity Range: weighted arithmetic mean (AVEw) of normalized fluorescence intensity relative to DMSO basis level 1.0
Source text: as §1, §2, §3

[10] = test system: BHY cells (human oral squamous cell carcinoma cells); test: Proliferation assay (alamarBlue) with BHY cells; details: read-out: Activity Range: weighted arithmetic mean (AVEw) of normalized fluorescence intensity relative to DMSO basis level 1.0
Source text: as §1, §2, §3

[11] = test system: SCC-25 cells (human tongue squamous cell carcinoma cells); test: Proliferation assay (alamarBlue) with SCC-25 cells
Source text: as §1, §2, §3

[12] = test system: A-431 cells (human epidermoid squamous cell carcinoma cells); test: Proliferation assay (alamarBlue) with A-431 cells
Source text: as §1, §2, §3

[13] = test system: C2C12 cells (murine myoblast cells); test: Proliferation assay (alamarBlue) with C2C12 cells; details: Mus musculus, compound at 20 μM, read-out: Activity Range: weighted arithmetic mean (AVEw) of normalized fluorescence intensity, relative to DMSO basis level 1.0
Source text: as §1, §2, §3

[14] = test system: TT cells (human medullary thyroid carcinoma cells); test: Proliferation assay (alamarBlue) with TT cells
Source text: as §4
as §2, with “1.0. […]” for “1.0.”

[15] = test system: HeLa cells (human cervical adenocarcinoma cells); test: Proliferation assay (alamarBlue) with HeLa cells
Source text: as §4
as §2, with “1.0. […]” for “1.0.”

[16] = Homo sapiens, read-out: Activity Range: weighted arithmetic mean (AVEw) of normalized fluorescence intensity relative to DMSO basis level 1.0

Oc1ccc(C=Cc2cc(O)cc(O)c2)cc1 [RES, resveratrol, reference compound]
activity at 20 µM ([1]; Homo sapiens, Table 32, compound at 20 μM, read-out: Activity Range (AVEw, weighted arithmetic mean of normalized fluorescence intensity, DMSO = 1.0)): 10%
Activity Range (AVEw, weighted arithmetic mean of normalized fluorescence intensity, DMSO = 1.0) ([1]; Table 33, compound at 20 μM): 0.1 ± 0.0
activity at 20 µM [2]: 60 ± 10%
Activity Range: weighted arithmetic mean (AVEw) of normalized fluorescence intensity relative to DMSO basis level 1.0 ([3]; 20 μM): 0.6 ± 0.0
activity at 20 µM [3, 16]: 60%
Activity Range: weighted arithmetic mean (AVEw) of normalized fluorescence intensity relative to DMSO basis level 1.0 ([4]; 20 μM): 0.1 ± 0.0
activity at 20 µM ([4]; Homo sapiens, B-cell, read-out: Activity Range: weighted arithmetic mean (AVEw) of normalized fluorescence intensity relative to DMSO basis level 1.0): 10%
Activity Range: weighted arithmetic mean (AVEw) of normalized fluorescence intensity relative to DMSO basis level 1.0 ([5]; 20 μM): 0.6 ± 0.0
activity at 20 µM [5, 16]: 60%
Activity Range: weighted arithmetic mean (AVEw) of normalized fluorescence intensity relative to DMSO basis level 1.0 ([6]; 20 μM): 0.7 ± 0.0
Activity Range: weighted arithmetic mean (AVEw) of normalized fluorescence intensity relative to DMSO basis level 1.0 ([6]; control at 40 μM): 0.4 ± 0.0
Activity Range: weighted arithmetic mean (AVEw) of normalized fluorescence intensity relative to DMSO basis level 1.0 ([7]; 20 μM): 0.9 ± 0.1
Activity Range: weighted arithmetic mean (AVEw) of normalized fluorescence intensity relative to DMSO basis level 1.0 ([7]; control at 40 μM): 0.7 ± 0.0
activity at 20 µM [8]: 50 ± 10%
activity at 20 µM [9]: 80 ± 10%
activity at 20 µM [10]: 50 ± 10%
Activity Range: weighted arithmetic mean (AVEw) of normalized fluorescence intensity relative to DMSO basis level 1.0 ([11]; 20 μM): 0.4 ± 0.1
activity at 20 µM [11, 16]: 40 ± 10%
activity at 20 µM ([12]; Homo sapiens, 20 μM, read-out: Activity Range: weighted arithmetic mean (AVEw) of normalized fluorescence intensity relative to DMSO basis level 1.0): 60%
Activity Range: weighted arithmetic mean (AVEw) of normalized fluorescence intensity relative to DMSO basis level 1.0 ([12]; compound at 20 μM): 0.6 ± 0.0
Activity Range: weighted arithmetic mean (AVEw) of normalized fluorescence intensity relative to DMSO basis level 1.0 ([12]; control at 40 μM): 0.2 ± 0.0
activity at 20 µM [13]: 80%
Activity Range: weighted arithmetic mean (AVEw) of normalized fluorescence intensity relative to DMSO basis level 1.0 ([14]; compound at 20 μM): 0.9 ± 0.0
Activity Range: weighted arithmetic mean (AVEw) of normalized fluorescence intensity relative to DMSO basis level 1.0 ([14]; control at 40 μM): 0.7 ± 0.0
Activity Range: weighted arithmetic mean (AVEw) of normalized fluorescence intensity relative to DMSO basis level 1.0 ([15]; compound at 20 μM): 0.9 ± 0.0
Activity Range: weighted arithmetic mean (AVEw) of normalized fluorescence intensity relative to DMSO basis level 1.0 ([15]; control at 40 μM): 0.4 ± 0.1
